Measured values: article PMC4503722, “Novel Phenotypic Outcomes Identified for a Public Collection of Approved Drugs from a Publicly Accessible Panel of Assays” (PLoS ONE, 2015)

What was measured:
[1] = test system: Colo320; test: cells; assay type: cell-based; conditions: assay number 27
[2] = test system: DLD-1; test: cells; assay type: cell-based; conditions: assay number 23
[3] = test system: alkaline phosphatase (ALP) activity in C2C12 cells; assay type: cell-based; conditions: assay number 6; concentration response
[4] = test system: SW480; test: cells; assay type: cell-based; conditions: assay number 24
[5] = test system: HCT116; test: cells; assay type: cell-based; conditions: assay number 25; basal
[6] = test system: HCT116 cells treated with a GSK3β inhibitor; test: cells; assay type: cell-based; conditions: assay number 26; GSK3b inhibitor pretreated
[7] = test system: HT-29; test: cells; assay type: cell-based; conditions: assay number 28
[8] = test system: STC-1 cell line; assay type: cell-based, mouse; conditions: assay number 13
[9] = test system: nuclear β-catenin in C2C12 cells; test: cells; assay type: cell-based; conditions: assay number 5; concentration response
[10] = test system: ECFC/ADSC co-culture cell nuclei number
[11] = test system: RKO; test: cells; assay type: cell-based; conditions: assay number 29
[12] = test system: NCI-H716 cells; test: cells; assay type: cell-based, Human; conditions: assay number 12
[13] = test system: SNU-C1; test: cells; assay type: cell-based; conditions: assay number 30
[14] = test system: endothelial tube formation in co-cultures of ECFCs and ADSCs treated with VEGF; test: cells; assay type: cell-based, human
[15] = test system: HeLa cells; test: cells; assay type: cell-based; conditions: for Hela CellCycMod PI 2N IC50/EC50: assay number 14; for Hela CellCycMod PI S Phase IC50/EC50: assay number 15; for Hela CellCycMod PI 4N IC50/EC50: assay number 16; for Hela CellCycMod PI MI IC50/EC50: assay number 17; for Hela CellCycMod PI Cell Number IC50/EC50: assay number 18
[16] = target: T1, hKDR (Homo sapiens, UniProt P35968); test: Cerep LANCE kinase assay hKDR (S1 assay 32); assay type: biochemical; conditions: assay number 32
T1 construct: purchased Cerep (LANCE kinase assay platform, contract assay)

[17] = target: T2, hp70S6K1 (RPS6KB1) (Homo sapiens, UniProt P23443); test: Cerep LANCE kinase assay hp70S6K1 (S1 assay 31); assay type: biochemical; conditions: assay number 31
T2 construct: purchased Cerep (LANCE kinase assay platform, contract assay)

[18] = target: T3, hGSK3b (Homo sapiens, UniProt P49841); test: Cerep LANCE kinase assay hGSK3b (S1 assay 34); assay type: biochemical; conditions: assay number 34
T3 construct: purchased Cerep (LANCE kinase assay platform, contract assay)

[19] = target: T4, hFLT3 (Homo sapiens, UniProt P36888); test: Cerep LANCE kinase assay hFLT3 (S1 assay 35); assay type: biochemical; conditions: assay number 35
T4 construct: purchased Cerep (LANCE kinase assay platform, contract assay)

[20] = target: T5, hJAK2 (Homo sapiens, UniProt O60674); test: Cerep LANCE kinase assay hJAK2 (S1 assay 33); assay type: biochemical; conditions: assay number 33
T5 construct: purchased Cerep (LANCE kinase assay platform, contract assay)
T5 sequence (O60674 whole entry): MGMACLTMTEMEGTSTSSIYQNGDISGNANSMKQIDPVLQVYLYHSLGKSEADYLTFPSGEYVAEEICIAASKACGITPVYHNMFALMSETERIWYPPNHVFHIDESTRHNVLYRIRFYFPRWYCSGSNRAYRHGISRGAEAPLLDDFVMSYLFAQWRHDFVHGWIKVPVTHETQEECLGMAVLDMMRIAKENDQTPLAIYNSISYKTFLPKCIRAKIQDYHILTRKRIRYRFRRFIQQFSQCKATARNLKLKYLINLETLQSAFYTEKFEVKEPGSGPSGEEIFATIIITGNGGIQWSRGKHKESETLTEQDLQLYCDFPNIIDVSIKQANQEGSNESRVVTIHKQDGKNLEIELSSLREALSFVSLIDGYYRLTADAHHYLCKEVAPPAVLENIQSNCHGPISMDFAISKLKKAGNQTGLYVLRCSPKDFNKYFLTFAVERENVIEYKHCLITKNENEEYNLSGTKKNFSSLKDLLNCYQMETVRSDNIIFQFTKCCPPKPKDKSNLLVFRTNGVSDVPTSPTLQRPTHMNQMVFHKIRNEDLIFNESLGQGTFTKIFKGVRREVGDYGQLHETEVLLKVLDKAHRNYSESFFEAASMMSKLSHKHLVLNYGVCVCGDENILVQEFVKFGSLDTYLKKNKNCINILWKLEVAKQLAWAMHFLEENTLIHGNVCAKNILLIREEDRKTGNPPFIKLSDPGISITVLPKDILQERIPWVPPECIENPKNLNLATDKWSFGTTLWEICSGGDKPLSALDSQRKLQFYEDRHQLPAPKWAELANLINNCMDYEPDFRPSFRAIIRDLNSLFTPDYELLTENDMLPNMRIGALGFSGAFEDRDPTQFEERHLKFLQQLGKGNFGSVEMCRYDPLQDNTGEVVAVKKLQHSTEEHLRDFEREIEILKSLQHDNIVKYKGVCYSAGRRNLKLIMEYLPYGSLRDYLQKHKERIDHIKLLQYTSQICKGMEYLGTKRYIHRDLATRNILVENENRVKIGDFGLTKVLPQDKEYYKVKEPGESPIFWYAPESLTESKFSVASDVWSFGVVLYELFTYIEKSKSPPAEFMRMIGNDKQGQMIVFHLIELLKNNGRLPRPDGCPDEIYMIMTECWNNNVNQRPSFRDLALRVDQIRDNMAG

T1 sequence (P35968 20-1356): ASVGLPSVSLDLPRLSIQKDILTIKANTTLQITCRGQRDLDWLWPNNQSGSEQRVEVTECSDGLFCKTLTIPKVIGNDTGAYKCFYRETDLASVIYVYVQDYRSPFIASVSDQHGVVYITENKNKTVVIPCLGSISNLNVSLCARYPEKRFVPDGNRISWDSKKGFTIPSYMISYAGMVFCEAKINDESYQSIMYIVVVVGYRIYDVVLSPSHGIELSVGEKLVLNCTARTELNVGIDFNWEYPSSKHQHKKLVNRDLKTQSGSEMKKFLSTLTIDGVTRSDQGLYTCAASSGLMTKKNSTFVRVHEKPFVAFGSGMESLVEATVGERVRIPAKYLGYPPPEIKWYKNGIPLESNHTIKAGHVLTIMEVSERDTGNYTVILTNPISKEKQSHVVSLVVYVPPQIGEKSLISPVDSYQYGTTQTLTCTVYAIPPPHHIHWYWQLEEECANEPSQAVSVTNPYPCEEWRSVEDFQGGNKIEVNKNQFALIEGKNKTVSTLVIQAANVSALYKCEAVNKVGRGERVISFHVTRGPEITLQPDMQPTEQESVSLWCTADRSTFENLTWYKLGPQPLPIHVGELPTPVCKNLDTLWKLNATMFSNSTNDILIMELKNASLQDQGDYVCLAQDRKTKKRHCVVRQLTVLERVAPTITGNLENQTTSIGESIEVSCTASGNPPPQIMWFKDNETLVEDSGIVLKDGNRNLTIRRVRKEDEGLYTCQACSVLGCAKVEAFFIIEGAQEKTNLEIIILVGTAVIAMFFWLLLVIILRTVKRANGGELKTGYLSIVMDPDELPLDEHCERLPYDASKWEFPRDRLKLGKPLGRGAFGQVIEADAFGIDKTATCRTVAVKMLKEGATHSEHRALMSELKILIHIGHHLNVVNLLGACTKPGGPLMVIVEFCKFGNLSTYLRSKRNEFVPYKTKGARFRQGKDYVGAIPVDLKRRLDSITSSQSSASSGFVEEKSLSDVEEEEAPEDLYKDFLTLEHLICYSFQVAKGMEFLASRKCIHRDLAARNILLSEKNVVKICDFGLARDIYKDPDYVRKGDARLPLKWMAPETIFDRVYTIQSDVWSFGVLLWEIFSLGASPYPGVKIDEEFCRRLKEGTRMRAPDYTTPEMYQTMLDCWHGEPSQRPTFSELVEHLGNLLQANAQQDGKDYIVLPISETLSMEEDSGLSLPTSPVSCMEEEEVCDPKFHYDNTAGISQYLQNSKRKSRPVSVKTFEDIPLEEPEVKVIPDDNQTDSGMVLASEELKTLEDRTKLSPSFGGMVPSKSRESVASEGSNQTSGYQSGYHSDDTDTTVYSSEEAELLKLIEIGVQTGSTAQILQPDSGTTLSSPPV
T2 sequence (P23443 whole entry): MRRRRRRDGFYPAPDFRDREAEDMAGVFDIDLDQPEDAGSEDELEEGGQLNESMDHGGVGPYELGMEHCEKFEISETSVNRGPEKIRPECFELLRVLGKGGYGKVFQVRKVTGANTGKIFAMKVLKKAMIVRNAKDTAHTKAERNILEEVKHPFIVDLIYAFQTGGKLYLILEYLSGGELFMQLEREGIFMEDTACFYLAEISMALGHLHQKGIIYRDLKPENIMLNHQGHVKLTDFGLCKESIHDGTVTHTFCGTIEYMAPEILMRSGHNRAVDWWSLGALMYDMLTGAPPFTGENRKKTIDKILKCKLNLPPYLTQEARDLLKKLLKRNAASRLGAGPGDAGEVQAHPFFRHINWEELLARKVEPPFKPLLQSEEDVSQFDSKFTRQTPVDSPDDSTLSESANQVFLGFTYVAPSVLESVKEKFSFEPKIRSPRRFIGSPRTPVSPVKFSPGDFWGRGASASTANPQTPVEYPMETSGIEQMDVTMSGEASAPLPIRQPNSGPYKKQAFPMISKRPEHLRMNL
T4 sequence (P36888 27-993): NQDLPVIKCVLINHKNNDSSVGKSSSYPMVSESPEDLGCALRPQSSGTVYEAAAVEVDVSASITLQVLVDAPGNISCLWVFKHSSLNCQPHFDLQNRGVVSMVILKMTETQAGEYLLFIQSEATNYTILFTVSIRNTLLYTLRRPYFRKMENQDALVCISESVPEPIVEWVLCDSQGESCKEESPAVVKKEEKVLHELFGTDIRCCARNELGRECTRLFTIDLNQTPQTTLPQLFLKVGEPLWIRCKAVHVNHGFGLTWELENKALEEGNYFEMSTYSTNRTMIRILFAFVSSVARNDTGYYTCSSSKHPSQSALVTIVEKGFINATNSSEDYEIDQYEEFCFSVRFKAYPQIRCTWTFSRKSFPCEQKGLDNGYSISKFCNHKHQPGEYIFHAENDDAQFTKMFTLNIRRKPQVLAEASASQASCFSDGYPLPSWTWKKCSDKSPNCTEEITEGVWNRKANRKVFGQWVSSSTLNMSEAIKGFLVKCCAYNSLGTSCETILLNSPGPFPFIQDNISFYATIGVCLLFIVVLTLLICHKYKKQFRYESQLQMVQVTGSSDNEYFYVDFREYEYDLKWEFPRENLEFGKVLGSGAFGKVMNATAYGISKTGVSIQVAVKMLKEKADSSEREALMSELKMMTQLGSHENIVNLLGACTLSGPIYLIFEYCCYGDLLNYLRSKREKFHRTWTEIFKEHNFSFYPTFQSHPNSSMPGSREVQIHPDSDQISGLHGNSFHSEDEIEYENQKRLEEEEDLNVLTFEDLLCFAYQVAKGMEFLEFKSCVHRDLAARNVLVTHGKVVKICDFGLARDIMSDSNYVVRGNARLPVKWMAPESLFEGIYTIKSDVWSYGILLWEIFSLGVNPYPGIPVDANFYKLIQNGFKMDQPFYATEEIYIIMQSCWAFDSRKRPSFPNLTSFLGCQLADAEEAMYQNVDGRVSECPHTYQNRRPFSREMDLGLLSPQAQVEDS
T3 sequence (P49841 whole entry): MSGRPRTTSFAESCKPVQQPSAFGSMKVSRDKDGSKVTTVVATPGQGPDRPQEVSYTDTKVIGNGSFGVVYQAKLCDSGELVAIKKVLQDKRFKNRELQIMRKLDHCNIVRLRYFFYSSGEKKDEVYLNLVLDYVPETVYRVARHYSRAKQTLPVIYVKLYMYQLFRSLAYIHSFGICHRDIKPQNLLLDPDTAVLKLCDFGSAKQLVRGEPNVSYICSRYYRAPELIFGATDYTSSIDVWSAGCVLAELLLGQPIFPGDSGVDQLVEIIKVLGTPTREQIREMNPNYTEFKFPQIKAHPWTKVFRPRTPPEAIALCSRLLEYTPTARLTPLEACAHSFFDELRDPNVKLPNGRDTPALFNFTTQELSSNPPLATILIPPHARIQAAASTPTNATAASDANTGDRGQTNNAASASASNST

SMILES | WntCondMedia_Alk Phos C2C12 IC50/EC50 [3] | Basal_Viability ATP HCT116 IC50/EC50 [5] | GSK3b inh pretreated_Viability ATP HCT116 IC50/EC50 [6] | mSTC-1 GLP1 Secretion IC50/EC50 [8] | WntCondMedia_bCatenin C2C12 IC50/EC50 [9] | VEGF_ADSC\ECFC Angio Hoechst NucArea IC50/EC50 [10] | hNCI-H716 GLP1 Secretion IC50/EC50 [12] | VEGF_ADSC\ECFC Angio CD31 TubeArea IC50/EC50 [14] | Hela CellCycMod PI 2N IC50/EC50 [15] | Hela CellCycMod PI S Phase IC50/EC50 [15] | Hela CellCycMod PI 4N IC50/EC50 [15] | Hela CellCycMod PI MI IC50/EC50 [15] | Hela CellCycMod PI Cell Number IC50/EC50 [15] | hKDR LANCE IC50/EC50 [16] | hp70S6K1 LANCE IC50/EC50 [17] | hGSK3b LANCE IC50/EC50 [18] | hFLT3 LANCE IC50/EC50 [19] | hJAK2 LANCE IC50/EC50 [20] | also measured
c1ccc2c(c1)Sc1ccccc1N2CC1CN2CCC1CC2 (stereo not shown) [NCGC00183046-03] | > 20 µM | > 20 µM | > 20 µM | > 40 µM | > 20 µM | > 10 µM | > 40 µM | 9.4389 µM | – | – | – | – | – | – | – | – | – | – | Basal_Viability ATP Colo 320 IC50/EC50 ([1]; basal): > 20 µM; Basal_Viability ATP DLD-1 IC50/EC50 ([2]; basal): > 20 µM; Basal_Viability ATP SW480 IC50/EC50 ([4]; basal): 5.431 µM; Basal_Viability ATP HT-29 IC50/EC50 ([7]; basal): > 20 µM; Basal_Viability ATP RKO IC50/EC50 ([11]; basal): 8.4586 µM; Basal_Viability ATP SNU-C1 IC50/EC50 ([13]; basal): > 20 µM
CCCCCCCCCCCCCC[N+](C)(C)C.[Br-] [NCGC00166121-03] | > 20 µM | 2.287 µM | 0.754 µM | > 40 µM | > 20 µM | 6.684 µM | 18.5931 µM | 1.9016 µM | > 10 µM | > 10 µM | > 10 µM | > 10 µM | 3.3211 µM | > 20 µM | > 20 µM | > 20 µM | > 20 µM | > 20 µM | Basal_Viability ATP Colo 320 IC50/EC50 [1]: 2.516 µM; Basal_Viability ATP DLD-1 IC50/EC50 [2]: 0.4746 µM; Basal_Viability ATP SW480 IC50/EC50 [4]: 0.9328 µM; Basal_Viability ATP HT-29 IC50/EC50 [7]: 1.32 µM; Basal_Viability ATP RKO IC50/EC50 [11]: 0.1473 µM; Basal_Viability ATP SNU-C1 IC50/EC50 [13]: 0.00517 µM
C#C[C@]1(O)CC[C@H]2[C@@H]3CCc4cc(OC5CCCC5)ccc4[C@H]3CC[C@@]21C [NCGC00166146-02] | > 20 µM | – | – | > 40 µM | > 20 µM | – | 17.5795 µM | – | – | – | – | – | – | – | – | – | – | – | –
C[C@@]12C(=O)OC(=O)[C@]1(C)C1CCC2O1 [NCGC00025212-08] | 1.4897 µM | – | – | 13.7125 µM | > 20 µM | 8.333 µM | 6.6758 µM | 1.2254 µM | > 10 µM | > 10 µM | > 10 µM | 8.4996 µM | 1.0094 µM | > 20 µM | > 20 µM | > 20 µM | > 20 µM | > 20 µM | –
